Laboratory results taken from US7807669B2, “Biaromatic compounds which activate PPARγ type receptors and cosmetic/pharmaceutical compositions comprised thereof” (Galderma Research & Development, priority 2002, dated 2010).

Assays:
Assay type in all cases: cell-based
PPARγ = molecular target: T1, PPARγ (Homo sapiens, UniProt P37231); test: Crossed-curve PPAR transactivation assay (PPARγ); conditions: HeLN cells stably transfected with ERE-βGlob-Luc-SV-Neo and Gal-hPPARγ; crossed curves against reference agonist, Schild regression; n.a. means not active; read-out: PPAR gamma Kd app
T1 construct: The reporter is ERE-βGlob-Luc-SV-Neo
T1 sequence (P37231 238-505 limits assumed): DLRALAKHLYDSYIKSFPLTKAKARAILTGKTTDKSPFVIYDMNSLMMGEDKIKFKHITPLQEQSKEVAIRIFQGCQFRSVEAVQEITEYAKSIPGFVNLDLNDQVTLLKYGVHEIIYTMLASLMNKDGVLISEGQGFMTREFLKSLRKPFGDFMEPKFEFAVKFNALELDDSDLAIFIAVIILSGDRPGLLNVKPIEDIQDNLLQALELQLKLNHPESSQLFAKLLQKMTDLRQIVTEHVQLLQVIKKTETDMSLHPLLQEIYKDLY
Description: (§1) Activation of the receptors by an agonist (activator) in HeLN cells leads to the expression of a reporter gene, luciferase, which, in the presence of a substrate, generates light. The modulation of the receptors is measured by quantifying the luminescence produced after incubation of the cells in the presence of a reference agonist. The ligands will displace the agonist from its site. The measurement of the activity is performed by quantifying the light produced. This measurement makes it possible to determine the modulatory activity of the compounds according to the invention by determining the constant that is the affinity of the molecule for the receptor. Since this value can fluctuate depending on the basal activity and the expression of the receptor, it is referred to as Kd apparent (KdApp in nM).
(§2) To determine this constant, “crossed curves” for the test product, against a reference agonist, are prepared using a 96-well plate: 10 concentrations of the test product plus a concentration 0 are arranged in a line, and 7 concentrations of the agonist plus a concentration 0 are arranged in a column. This is 88 measurement points for 1 product and 1 receptor. The remaining 8 wells are used for repeatability controls.
(§3) Measurements are also taken for total agonist controls with the same products.
(§4) The HeLN cell lines used are stable transfectants containing the plasmids ERE-βGlob-Luc-SV-Neo (reporter gene) and PPAR (α, δ, γ) Gal-hPPAR. These cells are seeded in 96-well plates at a rate of 10 000 cells per well in 100 μl of DMEM medium without phenol red and supplemented with 10% of defatted calf serum. The plates are then incubated for 16 hours at 37° C. and 7% CO2.
(§5) The various dilutions of the test products and of the reference ligand are added at a rate of 5 μl per well. The plates are then incubated for 18 hours at 37° C. and 7% CO2. The culture medium is removed by turning over and 100 μl of a 1:1 PBS/luciferin mixture are added to each well. After 5 minutes, the plates are read using the luminescence reader.

PPARδ = molecular target: T2, PPARδ (Homo sapiens, UniProt Q03181); test: Crossed-curve PPAR transactivation assay (PPARδ); conditions: HeLN cells stably transfected with ERE-βGlob-Luc-SV-Neo and Gal-hPPARδ; crossed curves against reference agonist, Schild regression; n.a. means not active; read-out: PPAR delta Kd app
T2 construct: The reporter is ERE-βGlob-Luc-SV-Neo
T2 sequence (Q03181 211-441 limits assumed): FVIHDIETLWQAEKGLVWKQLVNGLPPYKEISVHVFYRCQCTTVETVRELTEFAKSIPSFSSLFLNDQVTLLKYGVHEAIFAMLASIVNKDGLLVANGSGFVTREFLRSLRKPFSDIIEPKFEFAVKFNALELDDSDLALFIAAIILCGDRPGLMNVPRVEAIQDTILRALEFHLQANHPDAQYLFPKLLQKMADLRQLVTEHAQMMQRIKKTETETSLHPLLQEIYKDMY
Description: as §1
To determine this constant, “crossed curves” for the test product, against a reference agonist, are prepared using a 96-well plate: 10 concentrations of the test product plus a concentration 0 are arranged in a line, and 7 concentrations of the agonist plus a concentration 0 are arranged in a column. This is 88 measurement points for 1 product and 1 receptor. […]
The various dilutions of the test products and of the reference ligand are added at a rate of 5 μl per well. […] After 5 minutes, the plates are read using the luminescence reader.

PPARα = molecular target: T3, PPARα (Homo sapiens, UniProt Q07869); test: Crossed-curve PPAR transactivation assay (PPARα); conditions: HeLN cells stably transfected with ERE-βGlob-Luc-SV-Neo and Gal-hPPARα; crossed curves against reference agonist, Schild regression; n.a. means not active; read-out: PPAR alpha Kd app
T3 construct: The reporter is ERE-βGlob-Luc-SV-Neo
T3 sequence (Q07869 239-468 limits assumed): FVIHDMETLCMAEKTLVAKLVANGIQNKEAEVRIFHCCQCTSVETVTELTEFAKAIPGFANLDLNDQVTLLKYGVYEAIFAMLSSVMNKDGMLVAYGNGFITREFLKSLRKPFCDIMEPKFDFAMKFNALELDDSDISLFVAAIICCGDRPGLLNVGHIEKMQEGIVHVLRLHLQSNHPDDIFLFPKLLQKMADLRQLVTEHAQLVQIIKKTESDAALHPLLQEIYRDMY
Description: as §1, §2, §3, §4, §5

| SMILES | Kd (PPARγ) [nM] | Kd (PPARδ) [nM] | Kd (PPARα) [nM] |
| --- | --- | --- | --- |
| CCCCCCCNC(=O)N(C)c1cccc(-c2ccc(C[C@H](Nc3ccccc3C(=O)c3ccccc3)C(=O)NCCCCC)cc2)c1 [Example 8, (S)-2-(2-benzoylphenylamino)-3-[3′-(3-heptyl-1-methylureido)biphenyl-4-yl]-N-pentylpropionamide] | 30 | 500 | 2000 |
| CN(C(=O)Nc1ccc2ccccc2c1)c1cccc(-c2ccc(C[C@H](Nc3ccccc3C(=O)c3ccccc3)C(=O)O)cc2)c1 [Example 6, (S)-2-(2-benzoylphenylamino)-3-[3′-(1-methyl-3-naphthalen-2-ylureido)biphenyl-4-yl]propionic acid] | 4 |  |  |
| CCCCCCCNC(=O)N(C)c1cccc(-c2ccc(C[C@H](Nc3ccccc3C(=O)c3ccccc3)C(=O)N(C)Cc3ccccc3)cc2)c1 [Example 20, (S)-2-(2-benzoylphenylamino)-N-benzyl-3-[3′-(3-heptyl-1-methylureido)biphenyl-4-yl]-N-methylpropionamide] | 30 |  |  |
| CCCCCCCNC(=O)N(C)c1cccc(-c2ccc(C[C@H](Nc3ccccc3C(=O)c3ccccc3)c3nnc(CCC)o3)cc2)c1 [Example 3, (S)-1-{4′-[2-(2-benzoylphenylamino)-2-(5-propyl[1,3,4]oxadiazol-2-yl)ethyl]biphenyl-3-yl}-3-heptyl-1-methylurea] | 30 |  |  |
| CCCCCCCNC(=O)N(C)c1cccc(-c2ccc(C[C@H](Nc3ccccc3C(=O)c3ccccc3)C(=O)NCc3ccccn3)cc2)c1 [Example 18, (S)-2-(2-benzoylphenylamino)-3-[3′-(3-heptyl-1-methylureido)biphenyl-4-yl]-N-pyridin-2-ylmethylpropionamide] | 60 |  |  |
| CN(Cc1cccc(-c2ccc(C[C@H](Nc3ccccc3C(=O)c3ccccc3)C(=O)O)cc2)c1)C(=O)c1ccccc1 [Example 29, (S)-3-{3′-[(benzoylmethylamino)methyl]biphenyl-4-yl}-2-(2-benzoylphenylamino)propionic acid] | 500 |  | 2000 |
| CCCCCCCNC(=O)N(C)c1cccc(-c2ccc(C[C@H](Nc3ccccc3C(=O)c3ccccc3)C(=O)NCCNC(C)=O)cc2)c1 [Example 10, (S)—N-(2-acetylaminoethyl)-2-(2-benzoylphenylamino)-3-[3′-(3-heptyl-1-methylureido)biphenyl-4-yl]propionamide] | 60 |  | 2000 |
| CC(=CC(=O)c1ccccc1)N[C@@H](Cc1ccc(-c2cccc(CN(C)C(=O)c3ccccc3)c2)cc1)C(=O)O [Example 31, (S)-3-{3′-[(benzoylmethylamino)methyl]biphenyl-4-yl}-2-(1-methyl-3-oxo-3-phenylpropenylamino)propionic acid] | 15 |  |  |
| CCCCCCCNC(=O)N(C)c1cccc(-c2ccc(C[C@H](Nc3ccccc3C(=O)c3ccccc3)C(=O)NCCN(C)C)cc2)c1 [Example 26, (S)-2-(2-benzoylphenylamino)-N-(2-dimethylaminoethyl)-3-[3′-(3-heptyl-1-methylureido)biphenyl-4-yl]propionamide] | 60 |  |  |
| CCCCCCCNC(=O)N(C)c1cccc(-c2ccc(C[C@H](Nc3ccccc3C(=O)c3ccccc3)C(=O)N3CCC(C)CC3)cc2)c1 [Example 9, (S)-1-{4′-[2-(2-benzoylphenylamino)-3-(4-methylpiperid-1-yl)-3-oxopropyl]biphenyl-3-yl}-3-heptyl-1-methylurea] | 30 |  | 2000 |
| CCCCCCCNC(=O)N(C)c1cccc(-c2ccc(C[C@H](Nc3ccccc3C(=O)c3ccccc3)C(=O)N(Cc3ccccc3)Cc3ccccc3)cc2)c1 [Example 13, (S)-2-(2-benzoylphenylamino)-N,N-dibenzyl-3-[3′-(3-heptyl-1-methylureido)biphenyl-4-yl]propionamide] | 8 |  |  |
| CCCCCCCNC(=O)N(C)c1cccc(-c2ccc(C[C@H](Nc3ccccc3C(=O)c3ccccc3)C(=O)OCCCC)cc2)c1 [Example 39, butyl (S)-2-(2-benzoylphenylamino)-3-[3′-(3-heptyl-1-methylureido)biphenyl-4-yl]propionate] | 30 |  |  |
| CCCCCCCNC(=O)N(C)c1cccc(-c2ccc(C[C@H](Nc3ccccc3C(=O)c3ccccc3)C(=O)N3CCN(C)CC3)cc2)c1 [Example 16, (S)-1-{4′-[2-(2-benzoylphenylamino)-3-(4-methylpiperazin-1-yl)-3-oxopropyl]biphenyl-3-yl}-3-heptyl-1-methylurea] | 30 |  |  |
| CCCCCCCNC(=O)N(C)c1cccc(-c2ccc(C[C@H](Nc3ccccc3C(=O)c3ccccc3)C(=O)N(C)CCc3ccccc3)cc2)c1 [Example 27, (S)-2-(2-benzoylphenylamino)-3-[3′-(3-heptyl-1-methylureido)biphenyl-4-yl]-N-methyl-N-phenethylpropionamide] | 15 |  | 4000 |
